Data published in patent US4870183A, “Novel amino acid derivatives” (priority 1986, dated 1989).

Columns and labels:
[1] = Hypotensive effect in marmoset (tail cuff blood pressure, high renin state); assay type: in vivo, common marmoset; conditions: 30 mg/kg oral, conscious high renin marmoset, control 99.7
Procedure: Hypotensive Effect in Marmoset
The experiment was carried out by using common marmoset as described in K. G. Hofbauer et al., Clinical and Experimental Hypertension, Vol. A5, Nos. 7 & 8 pages 1237-1247.
Furosemide was administered orally three times to common marmoset at 15 mg per kilogram per day every other day to create a high renin state. Blood pressure of conscious marmoset was measured on the third day after the last furosemide dose.
A conscious male marmoset weighing 340 g was placed into small restraining chair. Blood pressure was measured on the tail cuff method using pretismograph. Compound A of this invention was dissolved in dilute hydrochloric acid, and administered orally at 30 mg/kg by using a catheter.

[2] = biological target: T1, renin in human high renin plasma (Homo sapiens, UniProt P00797); assay: Renin inhibitory effect in a human high renin plasma; assay type: biochemical
T1 construct: from tissue; host or cells: human high renin plasma
T1 sequence (P00797 67-406): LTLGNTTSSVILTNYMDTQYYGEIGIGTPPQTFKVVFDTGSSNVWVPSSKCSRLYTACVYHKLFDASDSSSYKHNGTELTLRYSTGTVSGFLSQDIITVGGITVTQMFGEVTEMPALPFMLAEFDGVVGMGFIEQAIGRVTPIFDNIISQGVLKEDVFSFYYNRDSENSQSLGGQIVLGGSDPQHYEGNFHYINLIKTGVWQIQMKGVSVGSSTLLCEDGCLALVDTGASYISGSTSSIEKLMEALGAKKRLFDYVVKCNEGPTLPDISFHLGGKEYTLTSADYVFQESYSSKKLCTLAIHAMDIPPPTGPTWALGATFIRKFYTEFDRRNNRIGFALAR
Procedure: Renin Inhibitory Effect in a Human High Renin Plasma
Two hundred μl of the mixture was placed on an ice bath, at 4° C., and remaining mixture (800 μl) was incubated for 60 minutes at 37° C. on a water bath. Two hundred μl of the incubated remaining mixture was chilled immediately on an ice bath, and the amount (A) of angiotensin I produced was determined by radioimmunoassay using renin riabead kit (DAINABOT).
The amount (B) of angiotensin I in the mixture placed on an ice bath at 4° C. was also determined by radioimmunoassay.
As a control, the same procedure as above was carried out by using 100 μl of dimethyl sulfoxide alone in place of 100 μl of dimethyl sulfoxide solution containing an amino acid compound of the present invention.
The net amount was estimated as the difference between A and B.
The inhibitory effect was calculated by the following equation. [formula]

plasma renin activity = biological target: T2, plasma renin activity (Callithrix jacchus, UniProt Q9TSZ1); assay: Renin inhibitory effect in plasma on common marmoset (plasma renin activity after oral dosing); assay type: in vivo; conditions: 30 mg/kg oral single dose, furosemide-treated conscious marmosets, control 43.16
T2 construct: from tissue; host or cells: plasma of furosemide-treated conscious male common marmosets
T2 sequence (Q9TSZ1 61-400): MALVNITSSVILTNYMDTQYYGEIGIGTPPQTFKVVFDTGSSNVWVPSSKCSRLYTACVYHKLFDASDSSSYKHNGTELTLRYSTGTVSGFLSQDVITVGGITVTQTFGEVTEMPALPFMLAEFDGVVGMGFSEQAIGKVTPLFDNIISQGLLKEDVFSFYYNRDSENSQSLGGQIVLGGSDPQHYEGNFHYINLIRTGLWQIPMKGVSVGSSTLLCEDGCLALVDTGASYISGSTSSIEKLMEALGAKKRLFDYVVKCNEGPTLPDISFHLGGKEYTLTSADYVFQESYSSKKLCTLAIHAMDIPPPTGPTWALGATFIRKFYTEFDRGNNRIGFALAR
Procedure: Renin Inhibitory Effect in Plasma on Common Marmoset
The experiment was carried out by using common marmoset as described in K. G. Hofbauer et al., CLINICAL AND EXPERIMENTAL HYPERTENSION, Vol. A5, Nos. 7 & 8 (1983), pages 1237-1247.
Furosemide was administered orally three times to common marmoset having a lower salt diet at 15 mg per kilogram per day every other day to create a high renin state. The experiment was carried out on the third day after the last furosemide dose.
Three conscious male marmosets weighing 310-460 g were placed into small restraining chair, and by using a catheter into the femoral artery, blood collecting was carried out at intervals of 60, 180 and 300 minutes.
Collected blood samples were centrifuged at 1200×g for 15 minutes at 4° C. Two hundred μl of the plasma was taken up and incubated for 60 minutes at 37° C., and the plasma renin activity was measured by radioimmunoassay using renin riabead kit (DAINABOT).
Compound A of this invention was dissolved in dilute hydrochloric acid, and administered orally at single dose of 30 mg/kg using catheter.

human renin = biological target: T3, human renin (Homo sapiens, UniProt P00797); assay: Inhibitory effect on human renin-sheep renin substrate reaction system in vitro; assay type: biochemical
T3 sequence (P00797 67-406): T1 sequence (P00797 67-406)
Procedure: Inhibitory effect on human renin-sheep renin substrate reaction system in vitro
The mixture was incubated for 15 minutes on a water bath at 37° C., and the reaction mixture was allowed to stand for 5 minutes on a water bath at 100° C. to stop the reaction. After cooling, 200 μl of the solution was taken up and the amount of angiotensin I produced by the addition of renin was determined by radioimmunoassay using renin riabead kit (DAINABOT).
The inhibitory effect was calculated by the following equation.
As a control, the same procedure as above was carried out by using 50 μl of dimethyl sulfoxide alone in place of the 50 μl of dimethyl sulfoxide solution containing an amino acid compound of the present invention. [formula]

IC50 [2]: 0.13 µM
PRA (plasma renin activity; 60 minutes after administration): 30.35 ng angiotensin I/ml/hr
PRA (plasma renin activity; 180 minutes after administration): 18.89 ng angiotensin I/ml/hr
PRA (plasma renin activity; 300 minutes after administration): 22.93 ng angiotensin I/ml/hr
IC50 (human renin): 0.0094 µM
Structure (SMILES): CC(C)OC(=O)C(O)[C@H](CC1CCCCC1)NC(=O)[C@H](Cc1c[nH]cn1)NC(=O)C(Cc1ccccc1F)Cc1ccccc1F (mixture of isomers) [Compound A, (2RS, 3S)-3-{N-[Bis(2-fluorobenzyl)acetyl]-L-histidyl}amino-4-cyclohexyl-2-hydroxybutyric acid isopropyl ester]
Blood pressure ([1]; 0.5 hours after administration): 94.7 mmHg
Blood pressure ([1]; 1 hour after administration): 86.2 mmHg
Blood pressure ([1]; 2 hours after administration): 89.7 mmHg
Blood pressure ([1]; 3 hours after administration): 86.2 mmHg
Blood pressure ([1]; 5 hours after administration): 85.7 mmHg
